By inhibition is commonly meant the relative decrease from the control value, in per cent. A lower inhibition goes with little suppression.

The source of these data is patent US10258621B2, “Methods and compositions for treating HIV-related disorders” (CHDI Foundation, Inc., priority 2014, dated 2019).

The target of one test is T1, KMO (Homo sapiens, UniProt O15229).
T1 construct: GST; His; expressed in transfected cells; host or cells: CHO (CHO-GST HIS KMO cell line)
The test is described as follows: KMO inhibition: L-kynurenine hydroxylation to 3OH-KYN monitored by LC/MS. In kind it is biochemical. The settings on record: 10 μM compound. Here is the method: A generalized procedure for monitoring L-Kynurenine (KYN) hydroxylation to form product 3-Hydroxy-Kynurenine (3OH—KYN) by LC/MS is described below. Product is quantified by multiple reaction monitoring using MS.
IC50's are calculated using automated fitting algorithm (A+ Analysis)
A method of monitoring L-Kynurenine (KYN) hydroxylation to form product 3-Hydroxy-Kynurenine (3OH—KYN) by LC/MS is described below. Product is quantified by multiple reaction monitoring.
• Compound: Stock concentrations: 10 mM in 100% DMSO • Enzyme: KMO enzyme prepared at Evotec via mitochondria isolation from CHO-GST HIS KMO cells • Substrate: L-Kynurenine (Sigma: Cat#K3750) • [stock concentration: 10 mM in 100 mM potassium phosphate buffer, pH 7.4]
IC50's are calculated using automated fitting algorithm (A+ Analysis).
A method of monitoring L-Kynurenine (KYN) hydroxylation to form 3-Hydroxy-Kynurenine (3OH—KYN) by LC/MS is described. Product is quantified by multiple reaction monitoring (MRM method).

Test [1] deals with extracellular levels of KYN, KYNA, 3-OH-KYN, AA and QA in the striatum. Description: Microdialysis after PO dosing of kynurenine, Compound 6 or both: extracellular KP metabolites in striatum. The settings on record: 30 mg/kg p.o., dosed alone; WT mice. In kind it is in vivo, adult male WT mice. Here is the method:
(§1) Animals were anesthetized using isoflurane (2%, 800 mL/min O2). Bupivacain/epinephrine was used for local analgesia, finadyne or carprophen for peri-/post-operative analgesia. The animals were placed in a stereotaxic frame (Kopf instruments, USA). I-shaped probes (membrane: polyacrylonitrile, 3 mm exposed surface; Brainlink, the Netherlands) were inserted in the striatum. After surgery, animals were kept individually in cages; provided food and water ad libitum.
(§2) Experiments were performed one day after surgery. On the day of the experiment, the probes of the animals were connected with flexible PEEK tubing to a microperfusion pump (Harvard PHD 2000 Syringe pump, Holliston, Mass. or similar). The I-shaped microdialysis probes were perfused with aCSF containing 147 mM NaCl, 3.0 mM KCl, 1.2 mM CaCl2 and 1.2 mM MgCl2, at a flow rate of 1.5 μL/min. Microdialysis samples were collected at 20-minute intervals by an automated fraction collector (820 Microsampler, Univentor, Malta or similar) into mini-vials already containing 10 μL 0.02 M formic acid (FA) and 0.04% ascorbic acid in ultrapurified H2O. At t=−30 min vehicle or KMO inhibitor were be administered, to ensure central and peripheral inhibition of KMO at the time of administration of kynurenine. At t=0 vehicle or kynurenine were administered. Microdialysate samples were collected for 240 min after administration of kynurenine. All the dialysis samples were stored at −80° C. awaiting their analysis. Dialysate levels of any or all of KP metabolites KYN, KYNA, 3-OH—KYN, AA and QA were quantified by LC-MS/MS at by Brains On-Line. After the experiment, the mice were sacrificed and terminal brain (striatum+cortex), liver, kidney, plasma and CSF samples were collected for analysis of KP metabolites. Levels of KP metabolites were measured in terminal brain (striatum+cortex), liver, kidney, plasma and CSF samples at Brains On-Line. Finally, levels of kynurenine and KMO inhibitors in dose formulation samples were quantified by Brains On-Line.
A method of examining the pharmacodynamic effects of kynurenine (30 mg/kg, p.o.) and Compound 6 (30 mg/kg, p.o.) on extracellular levels of KYN, KYNA, 3-OH—KYN, AA and QA in the striatum (STR) of adult male WT mice either co-dosed or dosed independently is disclosed.
Furthermore, PO administration of Compound 6 blocks toxic metabolites 3-OH—KYN (see FIG. 10) and QA (see FIG. 11), whereas kynurenine dosing increases them, due to kynurenine catabolism in mice brain.

The test system of the next test is KP metabolite KYNA. Description: Microdialysis after PO dosing in WT and HD (Q175_KI homozygous) animals: KYNA in striatum. The settings on record: PO 3 mg/kg or 10 mg/kg. In kind it is in vivo, mouse. Here is the method:
as §1
Experiments were performed one day after surgery. On the day of the experiment, the probes of the animals were connected with flexible PEEK tubing to a microperfusion pump (Harvard PHD 2000 Syringe pump, Holliston, Mass. or similar). […] Dialysate levels of any or all of KP metabolites KYN, KYNA, 3-OH—KYN, AA and QA were quantified by LC-MS/MS at by Brains On-Line. […] Levels of KP metabolites were measured in terminal brain (striatum+cortex), liver, kidney, plasma and CSF samples at Brains On-Line. Finally, levels of kynurenine and KMO inhibitors in dose formulation samples were quantified by Brains On-Line.
A method of examining the modulation of KP metabolites in HD animals similar to WT controls is disclosed. […] Following the microdialysis procedure described herein, dialysate levels of KP metabolite KYNA was quantified by LC-MS/MS at by Brains On-Line. […]

The test system of test [2] is KP metabolites (KYN, KYNA, AA, 3-HK) via KMO inhibition. Description: Microdialysis after PO dosing at various dosage levels: KP metabolites in striatum extracellular space. In kind it is in vivo. The settings on record: PO 3, 10 or 30 mg/kg; mouse striatum microdialysis. Here is the method: as §1, §2
A method of examining the modulation of KYN, KYNA, AA, and 3-HK via KMO inhibition with Compound 6 in striatum extracellular space is disclosed. […] Following the microdialysis procedure described herein, dialysate levels of KP metabolites KYN, KYNA, 3-HK, and AA were quantified by LC-MS/MS at by Brains On-Line.

In test [3] the target is NMDA receptor NR2B subunit (Homo sapiens, UniProt Q13224). The settings on record: NMDA receptor agonist; cited from earlier work.
NMDA receptor NR2B subunit, sequence (Q13224 27-1484, other chains not shown): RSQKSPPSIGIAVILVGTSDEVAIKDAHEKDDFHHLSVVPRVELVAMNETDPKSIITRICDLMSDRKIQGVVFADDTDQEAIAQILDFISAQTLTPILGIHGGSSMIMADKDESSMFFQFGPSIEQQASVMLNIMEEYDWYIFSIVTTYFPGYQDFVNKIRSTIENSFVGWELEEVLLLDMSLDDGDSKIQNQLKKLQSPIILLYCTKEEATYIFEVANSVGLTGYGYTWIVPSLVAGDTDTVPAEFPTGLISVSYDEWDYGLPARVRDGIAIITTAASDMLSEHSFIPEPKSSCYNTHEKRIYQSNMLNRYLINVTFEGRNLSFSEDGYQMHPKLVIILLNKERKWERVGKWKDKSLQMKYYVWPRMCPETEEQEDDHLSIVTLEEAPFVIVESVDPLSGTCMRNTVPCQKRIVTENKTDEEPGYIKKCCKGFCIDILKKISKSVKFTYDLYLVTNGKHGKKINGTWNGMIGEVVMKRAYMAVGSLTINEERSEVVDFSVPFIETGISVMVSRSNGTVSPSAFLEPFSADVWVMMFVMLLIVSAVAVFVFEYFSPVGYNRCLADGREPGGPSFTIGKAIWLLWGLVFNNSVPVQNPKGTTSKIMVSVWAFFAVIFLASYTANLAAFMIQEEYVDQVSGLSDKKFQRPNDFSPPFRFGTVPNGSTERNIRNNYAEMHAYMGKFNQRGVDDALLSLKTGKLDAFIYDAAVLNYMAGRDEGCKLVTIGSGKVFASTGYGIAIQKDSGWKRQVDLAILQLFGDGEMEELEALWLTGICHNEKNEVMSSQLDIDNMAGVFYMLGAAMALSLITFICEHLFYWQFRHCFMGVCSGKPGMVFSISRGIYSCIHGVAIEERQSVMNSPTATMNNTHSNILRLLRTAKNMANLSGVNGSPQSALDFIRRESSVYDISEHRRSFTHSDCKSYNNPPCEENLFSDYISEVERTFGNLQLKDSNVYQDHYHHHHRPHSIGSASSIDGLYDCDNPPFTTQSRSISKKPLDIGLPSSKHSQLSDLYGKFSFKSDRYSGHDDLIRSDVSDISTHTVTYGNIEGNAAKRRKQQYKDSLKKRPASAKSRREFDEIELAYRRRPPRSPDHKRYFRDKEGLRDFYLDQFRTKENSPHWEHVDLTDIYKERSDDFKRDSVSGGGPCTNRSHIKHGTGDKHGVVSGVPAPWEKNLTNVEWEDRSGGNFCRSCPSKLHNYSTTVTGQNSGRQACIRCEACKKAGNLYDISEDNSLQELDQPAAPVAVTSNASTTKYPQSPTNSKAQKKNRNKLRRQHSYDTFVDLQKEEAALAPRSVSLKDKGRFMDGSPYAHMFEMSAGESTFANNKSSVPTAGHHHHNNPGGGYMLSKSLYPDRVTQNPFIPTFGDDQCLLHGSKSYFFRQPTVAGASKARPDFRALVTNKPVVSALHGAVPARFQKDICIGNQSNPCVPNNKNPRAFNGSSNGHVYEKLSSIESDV
The target in test [4] is NMDA receptor NR2A subunit (Homo sapiens, UniProt Q12879). The settings on record: NMDA receptor agonist; cited from earlier work.
NMDA receptor NR2A subunit, sequence (Q12879 23-1464, other chains not shown): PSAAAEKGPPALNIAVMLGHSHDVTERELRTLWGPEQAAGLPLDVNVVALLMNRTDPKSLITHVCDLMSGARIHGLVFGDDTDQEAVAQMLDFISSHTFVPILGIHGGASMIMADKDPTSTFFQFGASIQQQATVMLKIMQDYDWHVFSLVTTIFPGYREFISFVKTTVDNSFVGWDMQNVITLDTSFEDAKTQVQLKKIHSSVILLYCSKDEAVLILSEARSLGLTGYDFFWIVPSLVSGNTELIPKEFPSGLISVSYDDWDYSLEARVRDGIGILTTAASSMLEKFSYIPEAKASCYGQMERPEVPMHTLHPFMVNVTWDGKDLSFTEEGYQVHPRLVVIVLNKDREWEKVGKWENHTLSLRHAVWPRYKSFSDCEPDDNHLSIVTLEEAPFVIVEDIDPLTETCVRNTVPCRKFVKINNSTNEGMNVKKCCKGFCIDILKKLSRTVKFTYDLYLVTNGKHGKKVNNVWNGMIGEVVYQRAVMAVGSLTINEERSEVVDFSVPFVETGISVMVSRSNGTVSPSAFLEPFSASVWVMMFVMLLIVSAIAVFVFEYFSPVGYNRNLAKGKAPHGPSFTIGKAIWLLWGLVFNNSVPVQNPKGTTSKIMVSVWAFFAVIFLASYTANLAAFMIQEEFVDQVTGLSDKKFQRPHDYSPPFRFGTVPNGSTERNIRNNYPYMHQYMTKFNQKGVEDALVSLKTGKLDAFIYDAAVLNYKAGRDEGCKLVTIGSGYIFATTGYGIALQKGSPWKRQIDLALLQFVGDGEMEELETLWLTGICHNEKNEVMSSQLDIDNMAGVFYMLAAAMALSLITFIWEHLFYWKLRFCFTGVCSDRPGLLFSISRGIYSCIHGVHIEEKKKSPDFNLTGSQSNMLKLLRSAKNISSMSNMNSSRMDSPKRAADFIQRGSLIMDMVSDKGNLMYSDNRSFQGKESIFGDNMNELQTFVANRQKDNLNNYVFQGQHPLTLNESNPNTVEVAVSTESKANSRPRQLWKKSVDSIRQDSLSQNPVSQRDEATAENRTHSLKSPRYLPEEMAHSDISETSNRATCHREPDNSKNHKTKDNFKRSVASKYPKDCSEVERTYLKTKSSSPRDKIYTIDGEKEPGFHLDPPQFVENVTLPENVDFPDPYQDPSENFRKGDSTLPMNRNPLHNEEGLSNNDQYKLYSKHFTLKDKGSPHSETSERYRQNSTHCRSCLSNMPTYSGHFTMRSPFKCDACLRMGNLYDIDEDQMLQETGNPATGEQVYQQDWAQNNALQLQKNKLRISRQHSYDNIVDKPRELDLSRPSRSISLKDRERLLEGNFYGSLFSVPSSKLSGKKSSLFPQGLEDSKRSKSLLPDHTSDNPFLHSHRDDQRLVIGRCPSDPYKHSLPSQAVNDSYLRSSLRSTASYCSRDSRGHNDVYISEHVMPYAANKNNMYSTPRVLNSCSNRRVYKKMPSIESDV

Entries after “also recorded” stand apart in the source; their conditions may differ.

T1 sequence (O15229 whole entry): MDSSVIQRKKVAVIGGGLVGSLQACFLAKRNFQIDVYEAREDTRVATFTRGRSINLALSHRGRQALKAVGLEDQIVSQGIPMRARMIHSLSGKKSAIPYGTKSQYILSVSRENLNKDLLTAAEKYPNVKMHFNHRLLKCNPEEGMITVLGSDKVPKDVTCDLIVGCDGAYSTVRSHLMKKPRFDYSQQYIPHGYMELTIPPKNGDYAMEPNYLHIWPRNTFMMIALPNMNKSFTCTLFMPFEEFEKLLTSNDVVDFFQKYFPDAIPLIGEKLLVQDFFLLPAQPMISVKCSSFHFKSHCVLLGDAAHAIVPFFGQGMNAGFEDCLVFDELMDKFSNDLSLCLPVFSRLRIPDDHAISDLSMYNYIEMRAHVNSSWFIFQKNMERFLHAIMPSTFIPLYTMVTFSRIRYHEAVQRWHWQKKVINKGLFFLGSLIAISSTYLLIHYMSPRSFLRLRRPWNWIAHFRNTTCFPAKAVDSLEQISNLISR

At KMO, `CC[C@H](C)Oc1ccc(-c2cc(C(=O)O)ncn2)cc1Cl` [Compound 4, (S)-6-(4-sec-butoxy-3-chlorophenyl)pyrimidine-4-carboxylic acid] had an inhibition at 10 µM of 100%.

`CC[C@@H](C)Oc1ccc(-c2cc(C(=O)O)ncn2)cc1Cl` [Compound 5, (R)-6-(4-sec-butoxy-3-chlorophenyl)pyrimidine-4-carboxylic acid] displayed an inhibition at 10 µM against KMO of 100%.

In the case of `O=C(O)c1cc(-c2ccc(OC3CC3)c(Cl)c2)ncn1` [Compound 6, 6-(3-chloro-4-cyclopropoxyphenyl)pyrimidine-4-carboxylic acid], in test [1], the 3-OH-KYN in striatum entry was “blocks”, the AA in striatum entry is “increases”, the KYN in striatum result is “increases” and the KYNA in striatum entry is listed as “increases”. Further, the QA in striatum result in test [1] was “blocks”. For the same molecule, the “KP metabolite KYNA in striatum, HD mice” value with KP metabolite KYNA (Q175_KI homozygous (HD) mice) is given as “dose dependent increase; also recorded: increases”. Further, the “KP metabolite KYNA in striatum, WT mice” value with KP metabolite KYNA (wild type mice) is recorded as “dose dependent increase; also recorded: increases”. At KMO, this molecule showed an inhibition at 10 µM of 100%. Besides, in test [2], the “3-HK in striatum extracellular space” value is listed as “insufficient modulation; also recorded: little or no effect”, the “AA in striatum extracellular space” value is on record as “dose dependent increases”, the “KYN in striatum extracellular space” value is given as “dose dependent increases” and the “KYNA in striatum extracellular space” value was “dose dependent increases”.

Turning to `O=C(O)c1cccnc1C(=O)O` [QUIN, quinolinic acid], in test [3], the “affinity for NR2B subunit” value is 100 µmol. Further, in test [4], the “affinity for NR2A subunit” value is 7 to 10 µmol.

As for `Nc1ccccc1C(=O)CC(N)C(=O)O` (stereo not drawn) [kynurenine, reference compound], in test [1], the 3-OH-KYN in striatum entry is given as “increases”, the AA in striatum entry was “little or no effect”, the KYN in striatum result is reported as “little or no effect” and the KYNA in striatum entry is reported as “little or no effect”. The QA in striatum entry in test [1] is reported as “increases”.
